# Laboratory results taken from patent US20220265817A1, “THERAPEUTIC COMPOSITIONS AND METHODS FOR TREATING HEPATITIS B” (priority 2017, published 2022).
# Where two headings read alike, the source gives them in different places.
# Tests used:
# [1] = system: D type HBV in primary human hepatocytes; test: microbe, parasite or virus in culture; assay type: cell-based; conditions: Hepatitis B virus, Hepatocyte; for EC50: determined in an earlier separate experiment
# Outline: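 Supernatants collected on day 8 were assayed for HBV DNA by qPCR after compound exposure beginning day 2, with media and compound replaced every second day, in hepatocytes infected on day 1 with D type HBV. Dose-response: 7 points, 3-fold steps, triplicate; pairwise combinations tested as 5×5 matrix, synergy by MacSynergy.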
# [2] = system: D type HBV in primary human hepatocytes (HBsAg); test: microbe, parasite or virus in culture; assay type: cell-based; conditions: Hepatitis B virus, Hepatocyte
# Outline: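 HBsAg inhibition versus DMSO control was determined by ELISA of day 8 supernatants. Percoll-purified PHHs received D type HBV one day after seeding, with compounds from day 2 and media changes every other day. Singles at 7 concentrations (3-fold, triplicate); pairs in 5×5 matrices.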
# [3] = system: HBV rcDNA in HepDE19 cells; test: HepDE19 cell culture system, rcDNA quantitation using bDNA assay, MacSynergy II; assay type: cell-based, human hepatoma cell line; conditions: for AVERAGE % INHIBITION (rcDNA): 4 replicates, SIRNA-NP ng/mL by row: r8 25, r9 8.333, r10 2.778, r11 0.926, r12 0.309, r13 0; for ADDITIVE INHIBITION: expected from additive interaction, SIRNA-NP ng/mL by row: r30 25, r31 8.333, r32 2.778, r33 0.926, r34 0.309, r35 0
# Experimental: In vitro combination studies were conducted using the method of Prichard and Shipman (Prichard M N, and Shipman C Jr., Antiviral Research, 1990, 14 (4-5), 181-205; and Prichard M N, et. al., MacSynergy II). HepDE19 cell culture system is a HepG2 (human hepatocarcinoma) derived cell line that supports HBV DNA replication and cccDNA formation in a tetracycline (Tet)-regulated manner and produces HBV rcDNA and a detectable reporter molecule dependent on the production and maintenance of cccDNA (Guo et al 2007. J. Virol 81:12472-12484). HepDE19 (50,000 cells/well) were plated in 96 well collagen-coated tissue-culture treated microtiter plates in DMEM/F12 medium supplemented with 10% fetal bovine serum, 1% penicillin-streptomycin and 1 μg/ml tetracycline and incubated in a humidified incubator at 37° C. and 5% CO2 overnight. Next day, the cells were switched to fresh medium without tetracycline and incubated for 4 hrs at 37° C. and 5% CO2. […] The two inhibitors were tested both singly as well as in combinations in a checkerboard fashion such that each concentration of inhibitor A was combined with each concentration of inhibitor B to determine their combination effects on inhibition of rcDNA production. Following a 7 day-incubation of cells with compound combinations, the level of rcDNA present in the inhibitor-treated wells was measured using a Quantigene 2.0 bDNA assay kit (Affymetrix, Santa Clara, Calif.) with HBV specific custom probe set and manufacturers instructions. […] The RLU data from the single compound treated cells were analyzed using XL-Fit module in Microsoft Excel to determine EC50 values using a 4-parameter curve fitting algorithm. Concurrently, the effect of compounds on cell viability was assessed using replicate plates, plated at a density of 5,000 cells/well and incubated for 4 days, to determine the ATP content as a measure of cell viability using the cell-titer glo reagent (CTG; Promega Corporation, Madison, Wis.) as per manufacturer's instructions.
# In vitro combination studies were conducted using the method of Prichard and Shipman (Prichard M N, Shipman C, Jr., Antiviral Res, 14, 181-205 (1990)). The HepDE19 cell line was developed as described in Guo et al. (Guo et al., J Virol, 81, 12472-12484 (2007)). It is a human hepatoma cell line stably transfected with the HBV genome, and which can express HBV pregenomic RNA and support HBV rcDNA (relaxed circular DNA) synthesis in a tetracycline-regulated manner. HepDE19 cells were plated in 96 well tissue-culture treated microtiter plates in DMEM/F12 medium supplemented with 10% fetal bovine serum+1% penicillin-streptomycin without tetracycline and incubated in a humidified incubator at 37° C. and 5% CO2 overnight. […] The two inhibitors were tested both singly as well as in combinations in a checkerboard fashion such that each concentration of inhibitor A was combined with each concentration of inhibitor B to determine their combination effects on inhibition of rcDNA production. Following a 48 hour-incubation, the level of rcDNA present in the inhibitor-treated wells was measured using a bDNA assay (Affymetrix) with HBV specific custom probe set and manufacturers instructions. […] Concurrently, the effect of inhibitor combinations on cell viability was assessed using replicate plates that were used to determine the ATP content as a measure of cell viability using the Cell-TiterGlo reagent (Promega) as per manufacturer's instructions.
# In vitro combination studies were conducted using the method of Prichard and Shipman (1990) (Prichard M N, Shipman C, Jr. 1990. A three-dimensional model to analyze drug-drug interactions. Antiviral Res 14:181-205 AND Prichard M N. 1992. MacSynergy II, University of Michigan).
smiles,measurement,setting,value
O=C(Nc1ccc(F)c(F)c1)c1cc(S(=O)(=O)NC2CCCC2)ccc1F [Compound 22],inhibition at 0.061728 µM,"[1]; TAF 0.00 nM, COMPOUND 22 61.728 nM",2.38%
same,inhibition at 0.18519 µM,"[1]; TAF 0.00 nM, COMPOUND 22 185.19 nM, read-out: AVERAGE % INHIBITION",-3.33%
same,inhibition at 0.55556 µM,"[1]; TAF 0.00 nM, COMPOUND 22 555.56 nM, read-out: AVERAGE % INHIBITION",8.01%
same,inhibition at 1.6667 µM,"[1]; TAF 0.00 nM, COMPOUND 22 1666.7 nM",28%
same,inhibition at 5 µM,"[1]; TAF 0.00 nM, COMPOUND 22 5000 nM, read-out: AVERAGE % INHIBITION",54.7%
same,inhibition at 0.06173 µM,"[1]; read-out: AVERAGE % […] DNA, COMPOUND 22 61.73 nM alone",-11.8%
same,inhibition at 0.18519 µM,"[1]; read-out: AVERAGE % […] DNA, COMPOUND 22 185.19 nM alone, read-out: AVERAGE % INHIBITION HBV DNA",-9.12%
same,inhibition at 0.55556 µM,"[1]; read-out: AVERAGE % […] DNA, COMPOUND 22 555.56 nM alone, read-out: AVERAGE % INHIBITION HBV DNA",-12.7%
same,inhibition at 1.66667 µM,"[1]; read-out: AVERAGE % […] DNA, COMPOUND 22 1666.67 nM alone",17.9%
same,inhibition at 5 µM,"[1]; read-out: AVERAGE % […] DNA, COMPOUND 22 5000.00 nM alone, read-out: AVERAGE % INHIBITION HBV DNA",63.1%
same,EC50,"[1]; HBV DNA, read-out: Inhibitor EC50",1020 nM
same,EC50,"[1]; PHH, read-out: Inhibitor B EC50 HBV DNA",1020 nM
same,inhibition at 0.06173 µM,"[2]; read-out: AVERAGE % INHIBITION HBsAg, COMPOUND 22 61.73 nM alone",-9.16%
same,inhibition at 0.18519 µM,"[2]; read-out: AVERAGE % INHIBITION HBsAg, COMPOUND 22 185.19 nM alone",-10.2%
same,inhibition at 0.55556 µM,"[2]; read-out: AVERAGE % INHIBITION HBsAg, COMPOUND 22 555.56 nM alone",-3.82%
same,inhibition at 1.66667 µM,"[2]; read-out: AVERAGE % INHIBITION HBsAg, COMPOUND 22 1666.67 nM alone",20.6%
same,inhibition at 5 µM,"[2]; read-out: AVERAGE % INHIBITION HBsAg, COMPOUND 22 5000.00 nM alone",31%
same,inhibition at 61.73 µM,"[2]; read-out: AVERAGE % INHIBITION, IFNα2a 0.00 IU/mL, COMPOUND 22 61.73 μM",-13.8%
same,inhibition at 185.19 µM,"[2]; read-out: AVERAGE % INHIBITION, IFNα2a 0.00 IU/mL, COMPOUND 22 185.19 μM",-10.6%
same,inhibition at 555.56 µM,"[2]; read-out: AVERAGE % INHIBITION, IFNα2a 0.00 IU/mL, COMPOUND 22 555.56 μM",-5.08%
same,inhibition at 1666.67 µM,"[2]; read-out: AVERAGE % INHIBITION, IFNα2a 0.00 IU/mL, COMPOUND 22 1666.67 μM",10.3%
same,inhibition at 5000 µM,"[2]; read-out: AVERAGE % INHIBITION, IFNα2a 0.00 IU/mL, COMPOUND 22 5000.00 μM",23.1%
same,inhibition at 0.061728 µM,"[2]; read-out: AVERAGE % INHIBITION, TAF 0 nM, COMPOUND 22 61.728 nM",-0.32%
same,inhibition at 0.18519 µM,"[2]; read-out: AVERAGE % INHIBITION, TAF 0 nM, COMPOUND 22 185.19 nM",2.37%
same,inhibition at 0.55556 µM,"[2]; read-out: AVERAGE % INHIBITION, TAF 0 nM, COMPOUND 22 555.56 nM",-2.17%
same,inhibition at 1.6667 µM,"[2]; read-out: AVERAGE % INHIBITION, TAF 0 nM, COMPOUND 22 1666.7 nM",17.7%
same,inhibition at 5 µM,"[2]; read-out: AVERAGE % INHIBITION, TAF 0 nM, COMPOUND 22 5000 nM",20.7%
same,EC50,[2]; read-out: Inhibitor B EC50 HBsAg,12.8 µM
same,EC50,[2]; read-out: Inhibitor EC50,12.8 µM
C=C1[C@H](CO)[C@@H](O)C[C@@H]1n1cnc2c(=O)[nH]c(N)nc21 [Entecavir],AVERAGE % INHIBITION (rcDNA),[3]; ETV 0.016 nM,−43.72%
same,AVERAGE % INHIBITION (rcDNA),[3]; ETV 0.031 nM,−50.07%
same,AVERAGE % INHIBITION (rcDNA),[3]; ETV 0.063 nM,−30.26%
same,AVERAGE % INHIBITION (rcDNA),[3]; ETV 0.125 nM,−23.47%
same,AVERAGE % INHIBITION (rcDNA),[3]; ETV 0.250 nM,−21.25%
same,AVERAGE % INHIBITION (rcDNA),[3]; ETV 1.000 nM,41.71%
same,AVERAGE % INHIBITION (rcDNA),[3]; ETV 2.000 nM,58.35%
same,AVERAGE % INHIBITION (rcDNA),[3]; ETV 4.000 nM,69.99%
same,EC50,"[3]; Hepatitis B virus, HepDE19, rcDNA by bDNA assay, ETV, read-out: Inhibitor B EC50",1.78 nM
same,ADDITIVE INHIBITION,[3]; ETV 0.015625 nM,−43.72%
same,ADDITIVE INHIBITION,[3]; ETV 0.03125 nM,−50.07%
same,ADDITIVE INHIBITION,[3]; ETV 0.0625 nM,−30.26%
same,ADDITIVE INHIBITION,[3]; ETV 0.125 nM,−23.47%
same,ADDITIVE INHIBITION,[3]; ETV 0.25 nM,−21.25%
same,ADDITIVE INHIBITION,[3]; ETV 1 nM,41.71%
same,ADDITIVE INHIBITION,[3]; ETV 2 nM,58.35%
same,ADDITIVE INHIBITION,[3]; ETV 4 nM,69.99%
